The numbers were not newly measured in publication PMC139967 (BMC Biochemistry, 2002), which cites them from elsewhere.

The subject of this data set is calmodulin.

As to KAHKAATKIQASFRGHITRKKLKC [NM], the “effect of high ionic strength on calmodulin binding” value is recorded as “reduced by high ionic strength”.
